Drawing on patent publication US6486164B2, “6-(4-arylalkylpiperazin-1-yl) benzodioxane and 6-(4-arylalkylpiperazin-1-yl) chromane derivatives: dopamine receptor subtype specific ligands” (Neurogen Corporation, priority 1998, dated 2002), this text covers melting point and Ki for 12 compounds.

Counter-ions that a name gives are not always drawn. Like-named read-outs stand apart in the source and are kept apart here.

The target in one series is T1, D4 receptors from human (Homo sapiens, UniProt P21917).
T1 construct: expressed in transfected cells; host or cells: COS cells
T1 sequence (P21917 1-419): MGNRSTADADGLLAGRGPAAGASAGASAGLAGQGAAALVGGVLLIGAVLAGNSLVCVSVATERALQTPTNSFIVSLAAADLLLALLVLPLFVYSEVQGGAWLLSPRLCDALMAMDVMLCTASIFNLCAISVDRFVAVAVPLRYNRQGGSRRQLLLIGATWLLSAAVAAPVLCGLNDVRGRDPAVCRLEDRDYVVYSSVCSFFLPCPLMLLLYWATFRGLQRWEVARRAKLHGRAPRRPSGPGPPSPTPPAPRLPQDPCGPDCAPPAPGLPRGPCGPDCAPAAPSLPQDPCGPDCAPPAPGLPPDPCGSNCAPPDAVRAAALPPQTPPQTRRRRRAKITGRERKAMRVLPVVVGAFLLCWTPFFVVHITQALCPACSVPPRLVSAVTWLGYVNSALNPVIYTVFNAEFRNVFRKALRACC
The series is described as follows: D4 receptor binding assay (3H-YM 09151-2 displacement). On the procedure:
(§1) Pellets of COS cells containing recombinantly produced D2, D3 or D4 receptors from human are used for the assays. The sample is homogenized in 100 volumes (w/vol) of 0.05 M Tris HCl buffer at 4° C. and pH 7.4. The sample is then centrifuged at 30,000×g and resuspended and rehomogenized. The sample is then centrifuged as described and the final tissue sample is frozen until use. The tissue is resuspended 1:20 (wt/vol) in 0.05 M Tris HCl buffer containing 100 mM NaCl.

For the next series, the target named is T2, D2 receptors from human (Homo sapiens, UniProt P14416).
T2 construct: expressed in transfected cells; host or cells: COS cells
The series is described as follows: D2 receptor binding assay (3H-YM 09151-2 displacement). On the procedure: as §1

In the next series the target is T3, D3 receptors from human (Homo sapiens, UniProt P35462).
T3 construct: expressed in transfected cells; host or cells: COS cells
The series is described as follows: D3 receptor binding assay (3H-YM 09151-2 displacement). On the procedure:
as §1

Where [1] appears, read: recombinant human receptor in COS cells, 0.5 nM 3H-YM 09151-2, read-out: D4 Ki.
Where [2] appears, read: recombinant human receptor in COS cells, 0.5 nM 3H-YM 09151-2, read-out: D2 Ki.
The mark [3] stands for this setting: recombinant human receptor in COS cells, 0.5 nM 3H-YM 09151-2, read-out: D3 Ki.

T3 sequence (P35462 whole entry): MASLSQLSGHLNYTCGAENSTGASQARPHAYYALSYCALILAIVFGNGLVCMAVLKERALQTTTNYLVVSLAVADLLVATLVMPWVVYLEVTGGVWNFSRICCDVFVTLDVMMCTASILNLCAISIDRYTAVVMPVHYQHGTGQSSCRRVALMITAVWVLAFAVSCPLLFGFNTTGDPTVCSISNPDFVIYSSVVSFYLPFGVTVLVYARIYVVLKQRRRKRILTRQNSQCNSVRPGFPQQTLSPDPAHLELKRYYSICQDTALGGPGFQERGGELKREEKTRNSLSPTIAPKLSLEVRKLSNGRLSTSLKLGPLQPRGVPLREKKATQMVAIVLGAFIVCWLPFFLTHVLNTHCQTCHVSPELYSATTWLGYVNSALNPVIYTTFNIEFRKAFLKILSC
T2 sequence (P14416 whole entry): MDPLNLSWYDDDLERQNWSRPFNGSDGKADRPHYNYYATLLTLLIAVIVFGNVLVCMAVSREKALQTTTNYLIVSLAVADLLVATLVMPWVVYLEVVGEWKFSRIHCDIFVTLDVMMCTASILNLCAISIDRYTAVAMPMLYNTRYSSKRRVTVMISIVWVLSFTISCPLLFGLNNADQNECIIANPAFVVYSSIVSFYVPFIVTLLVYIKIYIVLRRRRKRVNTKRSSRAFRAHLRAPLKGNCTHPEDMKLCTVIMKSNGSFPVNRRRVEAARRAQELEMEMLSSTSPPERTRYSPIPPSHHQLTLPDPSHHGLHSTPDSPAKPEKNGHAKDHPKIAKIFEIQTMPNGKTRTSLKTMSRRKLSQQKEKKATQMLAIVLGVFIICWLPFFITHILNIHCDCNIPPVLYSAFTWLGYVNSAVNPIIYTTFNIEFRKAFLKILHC

In general, melting point refers to the temperature, or range, at which the solid turns liquid. As to `Cl.c1ccc(CN2CCN(c3ccc4c(c3)OCCO4)CC2)cc1`, the melting point is 143 to 145 °C.
Still for that read-out and setting: to `Cc1ccc(CN2CCN(c3ccc4c(c3)OCCO4)CC2)cc1.O=C(O)C(=O)O` belongs 200 to 201 °C; to `COc1ccc(CN2CCN(c3ccc4c(c3)OCCO4)CC2)cc1.O=C(O)C(=O)O`, 193 to 195 °C.
On to `Clc1cccc(CN2CCN(c3ccc4c(c3)OCCO4)CC2)c1.O=C(O)C(=O)O`, for which the melting point was 213 to 215 °C.
`Clc1ccccc1CN1CCN(c2ccc3c(c2)OCCO3)CC1.O=C(O)C(=O)O` had a melting point of 175 °C.
For `COc1ccccc1CN1CCN(c2ccc3c(c2)OCCO3)CC1.O=C(O)C(=O)O`, the melting point is 143 °C.
As usually defined, the Ki is the dissociation constant of the complex between target and ligand, obtained from inhibition or displacement. “1-(Chroman-6-yl)-4-(4-methylbenzyl)piperazine Oxalate [Compound 4]”: the inhibition constant (Ki) stood at 35 nM at D4 receptors from human (setting [1]), 2310 nM on D2 receptors from human (setting [2]) and 2990 nM on D3 receptors from human (setting [3]).
In the case of `COc1cccc(CN2CCN(c3ccc4c(c3)OCCO4)CC2)c1` (as salt: oxalate) [Compound 2, 1-(1,4-benzodioxan-6-yl)-4-(3-methoxybenzyl)piperazine oxalate], the melting point is 213 to 215 °C.
The compound `Clc1ccc(CN2CCN(c3ccc4c(c3)OCCO4)CC2)cc1` (as salt: oxalate) [Compound 3, 1-(1,4-benzodioxan-6-yl)-4-(4-chlorobenzyl)piperazine oxalate] gave a melting point of 213 to 215 °C.
As to `Fc1ccc(CN2CCN(c3ccc4c(c3)OCCO4)CC2)cc1` [Compound 1, 1-(1,4-Benzodioxan-6-yl)-4-(4-fluorobenzyl)piperazine Oxalate], the Ki was 11 nM at D4 receptors from human, more than 4000 nM on D2 receptors from human and 3660 nM at D3 receptors from human.
Turning to `COc1cccc(CN2CCN(c3ccc4c(c3)OCCO4)CC2)c1` [Compound 2, 1-(1,4-benzodioxan-6-yl)-4-(3-methoxybenzyl)piperazine oxalate], the Ki at D4 receptors from human (setting [1]) came to 37 nM; on D2 receptors from human (setting [2]), 2590 nM; on D3 receptors from human (setting [3]), 2570 nM.
In the case of `Clc1ccc(CN2CCN(c3ccc4c(c3)OCCO4)CC2)cc1` [Compound 3, 1-(1,4-benzodioxan-6-yl)-4-(4-chlorobenzyl)piperazine oxalate], the Ki is 25 nM on D4 receptors from human, more than 4000 nM at D2 receptors from human and 2630 nM on D3 receptors from human.
